How the values were obtained:
Type in all cases: functional, Gallus gallus
[1] = Neurotrophic activity against chick embryo dorsal root ganglion assessed as neuronal viability at 70 nM after 2 days by Calcein-AM assay
[2] = Neurotrophic activity against chick embryo dorsal root ganglion assessed as neuronal viability at 700 nM after 2 days by Calcein-AM assay
[3] = Neurotrophic activity against chick embryo dorsal root ganglion assessed as neuronal viability at 7000 nM after 2 days by Calcein-AM assay

Compound `C=C(C)[C@@]12O[C@@]3(/C=C/CCCCCCCCCCCCC)O[C@@H]1[C@@H]1[C@@H]4O[C@]4(CO)[C@@H](O)[C@]4(O)C(=O)C(C)=C[C@H]4[C@@]1(O3)[C@H](C)[C@H]2OC(C)=O` [KIRKININE] has an Activity [1] of 57%, an Activity [2] of 103% and an Activity [3] of 142%.

From ChEMBL document CHEMBL1155575, “Kirkinine, a new daphnane orthoester with potent neurotrophic activity from Synaptolepis kirkii” (2000)
